Assay results reported in patent publication US9752125B2, “Differentiation of human embryonic stem cells” (priority 2010, dated 2017).

System: human embryonic stem cells line H1
Assay: IN Cell Analyzer imaging of PDX1, NKX6.1 and CDX2 expressing cells at stage 4 day 4 (Example 1)
Format: cell-based
Protocol: Treatment 1: DMEM-High glucose+1% B27 for four days (stage 4-basal media-BM), or […].
Parallel populations of Stage 3 cells were also treated with the following protein kinase C activators—phorbol-12-myristate-13-acetate (PMA) at a concentration of 20 nM (Calbiochem #524400), or [(2S, 5S)-(E, E)-8-(5-(4-(Trifluoromethyl)pheny)-2,4-pentadienoylamino)benzolactam] (TPB) at a concentration of 50 nM (Calbiochem #565740), substituted for PDBu in treatment 3 above. At the end of stage 4, day 4, 91% of the cells of the population treated with PMA, and 90% of the cells of the population treated with TPB expressed NKX6.1.

[1] = PKC activator 20 nM in DMEM-High glucose+1% B27+100 ng/ml Noggin+1 μM ALK5 inhibitor II for four days

Compound	percentage of total population expressing NKX6.1 [1]	percentage of total population expressing NKX6.1 (TPB 50 nM substituted for PDBu in treatment 3) [%]
CCCC(=O)O[C@@H]1[C@@H](C)[C@@]2(O)[C@@H](C=C(CO)C[C@]3(O)C(=O)C(C)=C[C@@H]23)[C@@H]2C(C)(C)[C@]12OC(=O)CCC [PDBu, phorbol-12,13-dibutyrate]	88%±4.2	–
CCCCCCCCCCCCCC(=O)O[C@@H]1[C@@H](C)[C@@]2(O)[C@@H](C=C(CO)C[C@]3(O)C(=O)C(C)=C[C@@H]23)[C@@H]2C(C)(C)[C@]12OC(C)=O [PMA, phorbol-12-myristate-13-acetate]	91%	–
(2S, 5S)-(E, E)-8-(5-(4-(Trifluoromethyl)phenyl)-2,4-pentadiemoylamino) benzolactam [TPB]	–	90
